The test system of assay [1] is SENCAR mice. In words: TPA-induced epidermal proliferation (BrdU IHC) in mouse skin. The class given is in vivo. On the procedure: (§1) Animals and treatment: Female SENCAR mice, 6-7 weeks old, were purchased from NCI Frederick (Frederick, Md.). The dorsal skin of SENCAR mice were shaved and treated topically twice per week for 2 weeks with 200 μL acetone vehicle or 1-3 μmol UA, 1-3 μmol RES, or an equimolar combination of RES and UA. Each treatment was followed 30 minutes later with topical application of 200 μL acetone vehicle or 1-2 μg of the tumor promoter TPA. In vivo sample collection: Animals were sacrificed 6 hr after the final TPA treatment for Western blotting and 48 hr after the final TPA treatment for histology. For immunohistochemical (IHC) analysis of epidermal proliferation five mice per group were i.p. injected with 100 mg/kg Bromodeoxyuridine (BrdU) in PBS 30 min prior to sacrifice. 1 cm^2 of mouse skin from treated areas was fixed in formalin and paraffin embedded to be analyzed via IHC. Immunohistochemistry (IHC): Slides were immunostained with anti-BrdU antibody. The percentage of BrdU-positive cells in the basal cell layer was determined from at least 10 randomly selected sites per slide (5 mice/group). In addition, the epidermal thickness of each skin sample was also measured at 10 random sites for 5 mice/group, using Image Pro-Discovery from Media Cybernetics (Bethesda, Md.).

In another assay the test system is NFKB. The assay can be described thus: Luciferase assay for NFKB activity in HaCaT cells. The class given is cell-based, human. The method, then: Luciferase assay for NFKB activity: HaCaT cells were transfected with the NFKB Cignal Reporter Assay Kit from Qiagen, using Attractene transfection reagent, per manufacturer's instructions. Cells were plated at 1.5×10^4 cells/well in 96 well plates during the transfection. After 16 hr transfection, cells were resupplied with OptiMEM containing 0.5% FBS, 1% non-essential amino acids, 50 U/ml penicillin, and […] for 24 hr. Cells were pretreated with various doses of RES or vehicle for 1 hr, followed by UA or vehicle for 1 hr. TNFα at 10 ng/ml was added and cells were incubated for 4 hr. Luminescence of both the TNFα-induced firefly luciferase and the transfection control Renilla luciferase were measured using the Dual-Luciferase Reporter Assay System from Promega and quantified using a Biotek Synergy HT spectrophotometer.

For another assay, the system named is AMPK. The assay can be described thus: AMPK phosphorylation in L6 myotubes. The class given is cell-based. The following applies: 30 min, UA 10 μM, RES 100 μM, alone or combined. On the procedure: (§2) L6 myotubes were incubated with UA (10 μM) at different time points. Ursolic acid induced Akt phosphorylation by 1.8, 1.7, and 1.8 fold increase at 30, 45, and 60 min. […] Treatment of L6 myotubes with UA (10 μM) or RES (100 μM) for 30 min increased AMPK phosphorylation by 1.7 and 5.3 fold, respectively.

For assay [2], the system named is Akt substrate 160 (AS160). The assay can be described thus: AS160 phosphorylation in L6 myotubes. The class given is cell-based. The note with it: UA 10 μM. On the procedure:
as §2

The next assay deals with Akt. In words: Akt phosphorylation in L6 myotubes. The class given is cell-based. The following applies: UA 10 μM. The method, then: as §2
The test system of another assay is NFKB subunit p65. In words: TNFα-mediated p65 phosphorylation in HaCaT keratinocytes, Western blot. The format is cell-based, human. The note with it: preliminary experiments, RES 100 and 200 μM, UA 10 and 20 μM, single agents. The method, then: Western blotting: HaCaT cells were treated with sub-optimal doses of RES, UA, or RES+UA and stimulated with 10 ng/ml human tumor necrosis factor alpha (TNFα) for 30 min. Cells were scraped into lysis buffer containing 1% Triton X-100, 0.5% IGEPAL, 0.05 M TrisHCl and 0.1 M NaCl as well as protease/phosphatase inhibitors and 5 mM EDT A. For in vivo studies, whole skin was placed on glass over ice and epidermis was removed by scraping and placed in RIPA buffer with protease/phosphatase inhibitors. Lysates were homogenized and proteins were extracted by centrifugation. Twenty micrograms of protein was separated on Bis-Tris gels and transferred onto PVDF membranes. Membranes were blocked in 5% dry milk or BSA and incubated with primary antibodies overnight at 4° C. Membranes were incubated with corresponding HRP-conjugated secondary antibodies for one hour and developed.
As mentioned before, NFKB activity is important during the tumor promotion phase.
For orientation: A western blot detects proteins with antibodies after separation by electrophoresis.

In another assay the test system is L6 myotubes. In words: cellular glucose uptake ([3H]-2DG). The class given is cell-based. The note with it: Ins 100 nM, Met 1 mM, UA 10 uM, RES 100 uM. The method, then:
L6 myotubes were incubated with UA (10 μM) at different time points.

The subject of assay [3] is SENCAR mice. The assay can be described thus: TPA-mediated epidermal thickening (hyperplasia) in mouse skin. The format is in vivo. The following applies: for 2 μg TPA-mediated epidermal thickening: topical 1, 2, or 3 μmol total dose, single agent. The method, then: as §1
Assay [4] concerns Ca3/7 mouse squamous carcinoma cells. The assay can be described thus: MTT assay for cell viability, Ca3/7. The class given is cell-based. The note with it: Ca3/7 cells, 200 μM RES. The method, then: MTT assay for cell viability: Cells were plated at 1.5×10^4 cells/well on 96-well plates. Cells were pretreated with RES or 0.1% vehicle for 1 hr followed by various doses of UA or 0.1% DMSO vehicle for 24 hr. In the experiment with A549 cells, 5.0×10^3 cells/well were plated, and cells were treated with UA or 0.1% DMSO for 48 hr after 1 hr pretreatment with RES or vehicle. MTT reagent (0.5 mg/ml) was added, and cells were incubated for an additional 2.5 hr. Media was removed and formazan crystals were dissolved with 100 μl DMSO. Plates were measured at 570 nm with background subtraction at 650 nm, using a Biotek Synergy HT spectrophotometer. Statistical Analyses: Differences between individual groups were determined by ANOVA. IC50 values were calculated with GraphPad Prism. Resistance Reversal (RR) was calculated by dividing the IC50 value of the UA+vehicle group by the IC50 value of the UA+RES group.
(Formazan colour is commonly taken as a measure of viable cells.)

[5] abbreviates: 1-3 μmol doses, assayed 48 hr after the final TPA treatment.

Turning to `C[C@H]1[C@H](C)CC[C@]2(C(=O)O)CC[C@]3(C)C(=CC[C@@H]4[C@@]5(C)CC[C@H](O)C(C)(C)[C@@H]5CC[C@]43C)[C@H]12` [UA, Ursolic acid], the “2 μg TPA-induced epidermal proliferation” value is listed as “significantly decreased” in the assay with SENCAR mice [1] (3 μmol of UA alone) and “limited effect” in the assay with SENCAR mice [1] (setting [5]). Further, the “1 μg TPA-induced epidermal proliferation” value in the assay with SENCAR mice [1] (UA alone, 1-3 μmol) was “dose-dependently decreased”. In addition, the “TNFα-stimulated NFKB activity (luciferase reporter)” value in the assay with NFKB (UA alone) is reported as “dose-dependently decreases”. Besides, the AMPK phosphorylation increase in the assay on AMPK is on record as 1.7 fold. Also, the AS160 phosphorylation increase was 1.3 fold in [2] (15 min), 2.5 fold in assay [2] (30 min), 1.6 fold in assay [2] (45 min) and 2.3 fold in [2] (60 min). Also, the “Akt phosphorylation fold increase” value in the assay with Akt (30 min) stood at 1.8 fold; in the assay with Akt (45 min), 1.7 fold; in the assay on Akt (60 min), 1.8 fold. In addition, the “TNFα-induced NFKB activity (phosphorylation of p65)” value in the assay on NFKB subunit p65 is given as “moderate effect”. In addition, the “Mean [3H]-2DG per Min per Protein [ ]” value with L6 myotubes is 257.35 pmol/mg/min. Also, the “Mean [3H]-DPM corrected for CYTO B” value in the assay with L6 myotubes is on record as 21855.37 DPM/mg. Besides, the “fold change from DMSO” value in the assay with L6 myotubes is 2.15 fold. Also, the “effect of 1 μg TPA on epidermal thickening” value with SENCAR mice [3] (UA alone, 1-3 μmol) is “dose-dependently decreased”. For the same compound, the “2 μg TPA-mediated epidermal thickening” value with SENCAR mice [3] is listed as “dose-dependently reversed”.

Take `Oc1ccc(C=Cc2cc(O)cc(O)c2)cc1` [RES, resveratrol]: in the assay with SENCAR mice [1] (setting [5]), the “2 μg TPA-induced epidermal proliferation” value is on record as “limited effect”. For the same compound, the “NFKB activity (luciferase reporter)” value in the assay with NFKB (RES alone 100 and 200 μM) was “partially inhibited”. Also, in the assay with AMPK, the AMPK phosphorylation increase is recorded as 5.3 fold. For the same compound, the “TNFα-induced NFKB activity (phosphorylation of p65)” value in the assay on NFKB subunit p65 is recorded as “moderate effect”. In the assay on L6 myotubes, the “Mean [3H]-2DG per Min per Protein [ ]” value stood at 244.97 pmol/mg/min, the “Mean [3H]-DPM corrected for CYTO B” value was found to be 37819.44 DPM/mg and the “fold change from DMSO” value came to 2.05 fold. For the same compound, in the assay on SENCAR mice [3] (2 and 3 μmol doses of RES alone), the “effect of 1 μg TPA on epidermal thickening” value is “no effect”. Besides, in the assay with SENCAR mice [3], the “2 μg TPA-mediated epidermal thickening” value was “no effect”. The “UA-mediated growth suppression with RES” value in [4] is on record as “increases the sensitivity”.

On to `CN(C)C(=N)N=C(N)N` [Met, Metformin, reference compound], for which, in the assay with L6 myotubes, the “Mean [3H]-2DG per Min per Protein [ ]” value came out at 232.19 pmol/mg/min, the “Mean [3H]-DPM corrected for CYTO B” value is 19718.32 DPM/mg and the “fold change from DMSO” value is 1.94 fold.
